Experimental data as given in PubChem BioAssay (NCI).
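Results reflect a 48-hour exposure of cells in 96-well plates to compound at five concentrations. GI50 is the concentration that inhibits growth by half. TGI: concentration producing complete growth inhibition.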

Assays:
Experiment in all cases: NCI anticancer screen, dose series, 48 h
OVCAR-8 ovarian = system: OVCAR-8 ovarian
NCI-H460 lung = system: NCI-H460 lung
M14 melanoma = system: M14 melanoma
A549 NSCLC = system: A549 NSCLC
PC-3 prostate = system: PC-3 prostate
SK-MEL-5 melanoma = system: SK-MEL-5 melanoma
RXF 393 renal = system: RXF 393 renal
IGROV1 ovarian = system: IGROV1 ovarian
BT-549 breast = system: BT-549 breast
SNB-19 CNS = system: SNB-19 CNS

Row | Structure (SMILES) | GI50 (OVCAR-8 ovarian) [µM] | TGI (OVCAR-8 ovarian) [µM] | GI50 (NCI-H460 lung) [µM] | TGI (NCI-H460 lung) [µM] | GI50 (M14 melanoma) [µM] | TGI (M14 melanoma) [µM] | GI50 (A549 NSCLC) [µM] | TGI (A549 NSCLC) [µM] | GI50 (PC-3 prostate) [µM] | TGI (PC-3 prostate) [µM] | GI50 (SK-MEL-5 melanoma) [µM] | TGI (SK-MEL-5 melanoma) [µM] | GI50 (RXF 393 renal) [µM] | TGI (RXF 393 renal) [µM] | GI50 (IGROV1 ovarian) [µM] | TGI (IGROV1 ovarian) [µM] | GI50 (BT-549 breast) [µM] | TGI (BT-549 breast) [µM] | GI50 (SNB-19 CNS) [µM] | TGI (SNB-19 CNS) [µM]
1 | O=C(Nc1ccc(Cl)c(Cl)c1)c1cccc(NC2=C(Cl)C(=O)N(Cc3ccccc3)C2=O)c1 | 31.6 | 89.5 | 30.3 | > 100 | 66 | > 100 | 42.9 | > 100 | 27.2 | > 100 | > 100 | > 100 | 25.1 | 65.6 | 21.1 | 91.1 | 17.3 | 87.1 | > 100 | > 100
2 | COC(=O)CCC(=O)C(=O)OC | 63200 | – | 34100 | – | 32300 | – | 52900 | – | 27800 | 84500 | 94300 | – | 30300 | 95100 | 19000 | 76800 | 26300 | 96200 | 34200 | –
3 | O=C[C@@H](CO)O[C@H](C=O)c1c[nH]c(=O)[nH]c1=O | – | 352 | – | 508 | – | 527 | – | 1020 | – | 790 | – | 309 | – | 163 | – | 343 | – | 286 | – | 813
4 | Cc1ccc(S(=O)(=O)OC2CCN(C)CC2)cc1 | – | > 100 | – | > 100 | – | > 100 | – | > 100 | – | > 100 | – | 44.6 | – | > 100 | – | > 100 | – | > 100 | – | > 100
5 | CC[C@]12CCCN3CCc4c(n(c5ccccc45)C(=O)C1)[C@@H]32 | – | > 100 | – | > 100 | – | > 65.5 | – | > 100 | – | > 100 | – | > 35.1 | – | 63.7 | – | > 100 | – | > 100 | – | > 100
6 | COc1ccc(C2CC(c3cc(OC)c(OC)c(OC)c3)=NO2)cc1OCCCCOc1cc2c(cc1OC)C(=O)N1CCC[C@H]1C=N2 (some centres undefined) | 2.55 | 7.74 | 1.85 | 4 | 1.73 | 3.45 | 2.33 | 5.68 | 0.585 | 3.04 | 1.47 | 2.79 | 1.39 | 2.72 | 1.57 | 3.06 | 1.23 | 3.54 | 1.96 | 4.97
7 | COc1cccc(C2c3cc4c(cc3OC(C)(N3CCCC3)C2C)OCO4)c1OC (centres undefined) | – | 98.1 | – | 28.4 | – | 45.5 | – | 35.8 | – | 41.2 | – | 28.4 | – | 86.7 | – | > 100 | – | 32.6 | – | 95.5
8 | O=[N+]([O-])c1ccc(S(=O)(=O)Cc2ccccc2)c([N+](=O)[O-])c1 | – | 3.7 | – | 9.43 | – | 3.37 | – | 33.3 | – | 3.45 | – | 4.9 | – | 3.4 | – | 6.36 | – | 5.12 | – | 39.6
9 | Cc1c(N2CCCC2)cc2c(c1NC(=O)c1ccccc1Cl)C(C)(C)CC2(C)C | – | 32.6 | – | 26 | – | 26.8 | – | 27.6 | – | 29.9 | – | 33.7 | – | 27.5 | – | 28 | – | 32 | – | 29.5
10 | OC(c1cccc(-n2ccc(C(F)(F)F)n2)c1)c1cnccc1NC1CCCCCC1 (centres undefined) | 1.92 | 3.93 | 1.84 | 3.42 | 1.78 | 3.29 | 1.81 | 3.56 | 1.59 | 3.09 | 1.73 | 3.18 | 1.36 | 2.74 | 1.53 | 2.92 | 1.63 | 3.06 | 1.73 | 3.24
11 | C=CC[n+]1c(/C=C/C=C2\N(C)c3ccccc3C2(C)C)sc2ccc(OC)cc21 | 0.327 | 33.8 | 0.199 | 12.1 | 0.331 | 2.59 | 0.279 | 16.1 | 0.215 | 12.2 | 0.0615 | 0.239 | 0.431 | 13.7 | 0.521 | 21.6 | 0.149 | 2.99 | 0.289 | 14.4
12 | NCCNc1c2c(c(NCCN)c3c(CO)c[nH]c13)C(=O)c1ccccc1C2=O | 5.26 | 47.2 | 25.7 | > 100 | 25.3 | > 100 | > 100 | > 100 | 20.1 | > 100 | 19.9 | 69.3 | 5.84 | 34.7 | 15 | > 100 | 6.72 | 32 | 3.34 | > 100
13 | CCOC(=O)c1c2c(c(O)c3ccccc3c(O)n(Cc3ccc(OC)cc3)c1C)C(=O)C=CC2=O | > 100 | > 100 | > 100 | > 100 | > 100 | > 100 | > 100 | > 100 | > 100 | > 100 | > 100 | > 100 | > 100 | > 100 | > 100 | > 100 | > 100 | > 100 | > 100 | > 100
14 | CCc1nc(N)nc(N)c1-c1ccc(NCCN)c([N+](=O)[O-])c1 | – | > 100 | – | > 100 | – | 75.5 | – | > 100 | – | > 100 | – | 40 | – | > 100 | – | > 100 | – | > 100 | – | > 100
15 | COc1ccc(OC)c(/C=N/NC(=O)Cc2csc3nc(-c4ccc(Br)cc4)cn23)c1 | 11.6 | 38.2 | > 100 | > 100 | 15.1 | 72.1 | 11.6 | 38.7 | 13.5 | 93.8 | 8.89 | 42.5 | 19 | 67.4 | 4.02 | 26.7 | 12.9 | 33.6 | 31.4 | > 100
